Results as given in ChEMBL document CHEMBL4680157, “Design, synthesis and biological evaluation of novel TRβ selective agonists sustained by ADME-toxicity analysis” (Eur J Med Chem, 2020).

How the values were obtained:
[1] = Toxicity in F344 rat assessed as effect on serum glucose level at 20 ug per 100 g of body weight, ig administered daily for 3 days (reference value: 151 +/- 13.5 mg/dl); conditions: in vivo, po, 72 h, dose 20 µg, time 3 day
[2] = Toxicity in F344 rat assessed as increase in heart and body weight ratio at 50 to 100 ug per 100 g body weight, ig administered daily for 3 days; conditions: in vivo, po, 72 h, dose 50-100 µg, time 3 day
[3] = Toxicity in F344 rat assessed as effect on serum cholesterol level at 20 ug per 100 g of body weight, ig administered daily for 3 days (reference value: 67.2 +/- 2.5 mg/dl); conditions: in vivo, po, 72 h, dose 20 µg, time 3 day
[4] = Toxicity in F344 rat assessed as increase in heart weight at 50 to 100 ug per 100 g body weight, ig administered daily for 3 days; conditions: in vivo, po, 72 h, dose 50-100 µg, time 3 day
[5] = Toxicity in F344 rat assessed as effect on serum AST/GOT level at 20 ug per 100 g of body weight, ig administered daily for 3 days (reference value: 153 +/- 11 U/L); conditions: in vivo, po, 72 h, dose 20 µg, time 3 day
[6] = Toxicity in F344 rat assessed as effect on serum triglycerides level at 20 ug per 100 g of body weight, ig administered daily for 3 days (reference value: 86.8 +/- 10.4 mg/dl); conditions: in vivo, po, 72 h, dose 20 µg, time 3 day
[7] = Toxicity in F344 rat assessed as effect on serum ALT/GPT level at 20 ug per 100 g of body weight, ig administered daily for 3 days (reference value: 46 +/- 4 U/L); conditions: in vivo, po, 72 h, dose 20 µg, time 3 day
[8] = Toxicity in F344 rat assessed as effect on serum bilirubin level at 20 ug per 100 g of body weight, ig administered daily for 3 days (reference value: 1.4 +/- 0.2 mg/dl); conditions: in vivo, po, 72 h, dose 20 µg, time 3 day
[9] = Toxicity in F344 rat assessed as reduction in liver and body weight ratio at 50 to 100 ug per 100 g body weight, ig administered daily for 3 days; type: tissue-based; conditions: in vivo, po, 72 h, dose 50-100 µg, time 3 day
HDAC9 = HDAC9 (Homo sapiens, UniProt Q9UKV0); assay: Inhibition of HDAC9 (unknown origin) at 10 uM relative to control
SIRT7 = target: T1, SIRT7 (Homo sapiens, UniProt Q9NRC8); assay: Inhibition of SIRT7 (unknown origin) at 10 uM relative to control
T1 sequence (Q9NRC8 whole entry): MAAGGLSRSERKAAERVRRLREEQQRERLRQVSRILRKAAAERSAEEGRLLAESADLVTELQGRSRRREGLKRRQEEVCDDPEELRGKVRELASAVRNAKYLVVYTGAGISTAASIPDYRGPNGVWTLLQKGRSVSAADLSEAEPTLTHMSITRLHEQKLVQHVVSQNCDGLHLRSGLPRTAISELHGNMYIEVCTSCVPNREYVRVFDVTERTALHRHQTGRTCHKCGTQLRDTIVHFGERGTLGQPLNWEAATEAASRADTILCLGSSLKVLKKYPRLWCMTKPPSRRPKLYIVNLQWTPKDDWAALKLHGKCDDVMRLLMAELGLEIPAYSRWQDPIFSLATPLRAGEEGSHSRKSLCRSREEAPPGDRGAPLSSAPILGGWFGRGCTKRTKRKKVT

[10] = target: 3',5'-cyclic-AMP phosphodiesterase 4C (Homo sapiens) (UniProt Q08493); assay: Inhibition of PDE4C1 (unknown origin) at 10 uM relative to control
HDAC6 = target: T2, HDAC6 (Homo sapiens, UniProt Q9UBN7); assay: Inhibition of HDAC6 (unknown origin) at 10 uM relative to control
T2 sequence (Q9UBN7 whole entry): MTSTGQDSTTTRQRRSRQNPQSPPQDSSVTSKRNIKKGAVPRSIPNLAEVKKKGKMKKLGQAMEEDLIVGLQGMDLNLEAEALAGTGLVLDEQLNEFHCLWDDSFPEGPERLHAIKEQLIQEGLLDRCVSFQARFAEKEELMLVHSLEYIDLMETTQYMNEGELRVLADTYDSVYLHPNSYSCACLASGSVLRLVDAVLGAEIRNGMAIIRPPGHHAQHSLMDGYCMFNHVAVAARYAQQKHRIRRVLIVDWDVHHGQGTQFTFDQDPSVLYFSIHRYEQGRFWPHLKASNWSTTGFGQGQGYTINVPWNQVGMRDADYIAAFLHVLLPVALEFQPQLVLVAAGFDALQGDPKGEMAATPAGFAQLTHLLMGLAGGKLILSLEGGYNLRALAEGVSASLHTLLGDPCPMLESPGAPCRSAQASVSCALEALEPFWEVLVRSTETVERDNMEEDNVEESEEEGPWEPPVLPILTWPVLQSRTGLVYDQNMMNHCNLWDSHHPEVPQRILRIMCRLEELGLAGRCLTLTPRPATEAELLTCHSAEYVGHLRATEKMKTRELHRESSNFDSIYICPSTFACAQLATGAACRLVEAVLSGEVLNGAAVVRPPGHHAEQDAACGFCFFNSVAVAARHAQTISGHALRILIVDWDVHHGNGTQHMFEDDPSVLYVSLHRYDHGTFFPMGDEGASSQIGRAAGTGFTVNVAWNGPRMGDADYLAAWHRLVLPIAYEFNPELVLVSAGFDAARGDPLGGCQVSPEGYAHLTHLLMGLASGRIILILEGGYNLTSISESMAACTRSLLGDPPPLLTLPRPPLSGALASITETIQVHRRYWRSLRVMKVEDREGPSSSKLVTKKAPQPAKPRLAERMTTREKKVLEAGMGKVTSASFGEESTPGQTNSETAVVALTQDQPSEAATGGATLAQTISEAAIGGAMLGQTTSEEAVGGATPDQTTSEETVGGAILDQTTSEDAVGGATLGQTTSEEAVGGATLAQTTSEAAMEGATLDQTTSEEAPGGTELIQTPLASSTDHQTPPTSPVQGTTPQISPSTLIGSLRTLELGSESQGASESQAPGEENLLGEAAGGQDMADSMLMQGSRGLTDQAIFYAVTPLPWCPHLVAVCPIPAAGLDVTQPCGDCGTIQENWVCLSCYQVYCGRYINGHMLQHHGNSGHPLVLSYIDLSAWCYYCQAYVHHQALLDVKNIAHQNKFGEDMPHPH

[11] = Cytotoxicity against human MCF7 cells assessed as cell growth inhibition at 10 uM after 24 hrs relative to control; type: cell-based
CYP1A2 = target: T3, CYP1A2 (Homo sapiens, UniProt P05177); assay: Inhibition of CYP1A2 (unknown origin) at 10 uM relative to control; type: ADME
T3 sequence (P05177 whole entry): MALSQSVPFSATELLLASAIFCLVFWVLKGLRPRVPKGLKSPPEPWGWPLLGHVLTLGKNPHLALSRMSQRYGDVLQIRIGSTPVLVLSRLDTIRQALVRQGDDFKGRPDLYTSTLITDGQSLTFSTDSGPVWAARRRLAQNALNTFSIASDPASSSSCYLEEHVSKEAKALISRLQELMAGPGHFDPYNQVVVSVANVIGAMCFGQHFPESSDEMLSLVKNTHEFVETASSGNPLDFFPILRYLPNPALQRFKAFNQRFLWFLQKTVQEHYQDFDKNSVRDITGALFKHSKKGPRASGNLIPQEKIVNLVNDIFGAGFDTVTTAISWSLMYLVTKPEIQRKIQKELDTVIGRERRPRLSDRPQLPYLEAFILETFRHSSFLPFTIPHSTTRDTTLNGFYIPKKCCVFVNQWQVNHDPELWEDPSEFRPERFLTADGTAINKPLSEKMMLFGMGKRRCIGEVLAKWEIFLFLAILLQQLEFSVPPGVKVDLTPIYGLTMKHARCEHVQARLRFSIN

[12] = Cytotoxicity against human MCF7 cells assessed as cell growth inhibition at 10 uM after 48 hrs relative to control; type: cell-based
HDAC4 = HDAC4 (Homo sapiens, UniProt P56524); assay: Inhibition of HDAC4 (unknown origin) at 10 uM relative to control
[13] = Cytotoxicity against human HEK293 cells assessed as cell growth inhibition at 10 uM after 48 hrs relative to control; type: cell-based
HDAC8 = target: T4, HDAC8 (Homo sapiens, UniProt Q9BY41); assay: Inhibition of HDAC8 (unknown origin) at 10 uM relative to control
T4 sequence (Q9BY41 whole entry): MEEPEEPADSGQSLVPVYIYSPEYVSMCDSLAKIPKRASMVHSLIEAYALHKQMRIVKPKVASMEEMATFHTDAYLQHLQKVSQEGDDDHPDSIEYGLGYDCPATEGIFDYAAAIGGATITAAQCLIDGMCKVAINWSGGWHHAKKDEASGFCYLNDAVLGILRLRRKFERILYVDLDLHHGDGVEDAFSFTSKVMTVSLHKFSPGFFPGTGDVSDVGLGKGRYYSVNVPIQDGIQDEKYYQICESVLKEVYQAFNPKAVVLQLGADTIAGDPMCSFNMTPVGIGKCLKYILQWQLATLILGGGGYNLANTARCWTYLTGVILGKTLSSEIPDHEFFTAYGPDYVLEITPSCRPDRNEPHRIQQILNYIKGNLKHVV

CYP2C19 = CYP2C19 (Homo sapiens, UniProt P33261); assay: Inhibition of CYP2C19 (unknown origin) at 10 uM relative to control; type: ADME
hERG (KCNH2) = hERG (KCNH2) (Homo sapiens, UniProt Q12809); assay: Inhibition of human ERG at 10 uM by fluorescence polarization assay relative to control
[14] = Cytotoxicity against human HEK293 cells assessed as cell growth inhibition at 10 uM after 24 hrs relative to control; type: cell-based
[15] = Cytotoxicity against human U2OS cells assessed as cell growth inhibition at 10 uM after 24 hrs relative to control; type: cell-based
CYP3A4 = CYP3A4 (Homo sapiens, UniProt P08684); assay: Inhibition of CYP3A4 (unknown origin) at 10 uM relative to control; type: ADME
[16] = Cytotoxicity against human hTERT cells assessed as cell growth inhibition at 10 uM after 48 hrs relative to control; type: cell-based, hTERT-BJ
CYP2D6 = CYP2D6 (Homo sapiens, UniProt P10635); assay: Inhibition of CYP2D6 (unknown origin) at 10 uM relative to control; type: ADME
Aurora B = Aurora B (Homo sapiens, UniProt Q96GD4); assay: Inhibition of Aurora B (unknown origin) at 10 uM relative to control
[17] = Cytotoxicity against human U2OS cells assessed as cell growth inhibition at 10 uM after 48 hrs relative to control; type: cell-based
[18] = Cytotoxicity against human hTERT cells assessed as cell growth inhibition at 10 uM after 24 hrs relative to control; type: cell-based, hTERT-BJ
CYP2C9 = CYP2C9 (Homo sapiens, UniProt P11712); assay: Inhibition of CYP2C9 (unknown origin) at 10 uM relative to control; type: ADME
Sequence of CYP2C9 (P11712 whole entry): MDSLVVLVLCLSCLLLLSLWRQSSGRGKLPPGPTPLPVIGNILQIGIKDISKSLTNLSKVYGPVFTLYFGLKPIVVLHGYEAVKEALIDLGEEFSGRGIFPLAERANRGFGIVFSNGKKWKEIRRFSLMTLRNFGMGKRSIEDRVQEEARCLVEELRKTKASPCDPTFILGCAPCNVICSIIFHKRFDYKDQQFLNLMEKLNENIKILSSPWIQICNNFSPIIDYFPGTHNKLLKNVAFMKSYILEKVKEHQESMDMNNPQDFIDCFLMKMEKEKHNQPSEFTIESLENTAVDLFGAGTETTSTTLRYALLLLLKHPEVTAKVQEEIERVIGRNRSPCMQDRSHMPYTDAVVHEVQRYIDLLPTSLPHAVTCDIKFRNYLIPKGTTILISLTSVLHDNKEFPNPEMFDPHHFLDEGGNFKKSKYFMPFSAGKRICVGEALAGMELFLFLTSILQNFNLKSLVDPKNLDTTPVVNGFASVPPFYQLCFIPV

Sequence of HDAC4 (P56524 whole entry): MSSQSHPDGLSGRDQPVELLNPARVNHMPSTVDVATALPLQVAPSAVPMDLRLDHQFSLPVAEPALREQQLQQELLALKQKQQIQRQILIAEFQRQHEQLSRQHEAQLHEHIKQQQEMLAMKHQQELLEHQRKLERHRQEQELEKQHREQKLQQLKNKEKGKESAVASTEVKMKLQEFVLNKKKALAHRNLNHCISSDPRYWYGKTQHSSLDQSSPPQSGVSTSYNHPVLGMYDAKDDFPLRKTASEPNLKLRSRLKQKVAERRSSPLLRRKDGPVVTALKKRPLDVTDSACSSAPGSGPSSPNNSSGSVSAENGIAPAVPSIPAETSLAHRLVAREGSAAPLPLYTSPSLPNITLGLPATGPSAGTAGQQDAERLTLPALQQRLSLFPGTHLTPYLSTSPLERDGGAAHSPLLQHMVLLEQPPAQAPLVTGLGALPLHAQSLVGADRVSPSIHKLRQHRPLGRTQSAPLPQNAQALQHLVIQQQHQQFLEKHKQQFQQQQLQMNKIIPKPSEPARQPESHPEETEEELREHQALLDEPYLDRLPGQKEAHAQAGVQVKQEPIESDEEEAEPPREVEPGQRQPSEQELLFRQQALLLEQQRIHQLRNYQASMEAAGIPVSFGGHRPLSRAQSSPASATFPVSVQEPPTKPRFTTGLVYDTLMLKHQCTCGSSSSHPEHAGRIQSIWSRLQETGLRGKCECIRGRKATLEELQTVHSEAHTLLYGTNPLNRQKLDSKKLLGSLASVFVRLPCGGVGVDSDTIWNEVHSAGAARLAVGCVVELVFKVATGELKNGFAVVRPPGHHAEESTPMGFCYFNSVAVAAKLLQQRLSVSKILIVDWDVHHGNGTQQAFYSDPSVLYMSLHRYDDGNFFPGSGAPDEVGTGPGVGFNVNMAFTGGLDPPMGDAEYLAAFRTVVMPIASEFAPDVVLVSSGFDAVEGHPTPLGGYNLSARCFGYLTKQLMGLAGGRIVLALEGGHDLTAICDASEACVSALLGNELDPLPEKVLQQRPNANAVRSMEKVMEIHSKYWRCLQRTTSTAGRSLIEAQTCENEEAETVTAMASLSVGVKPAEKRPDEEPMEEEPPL
Sequence of hERG (KCNH2) (Q12809 whole entry): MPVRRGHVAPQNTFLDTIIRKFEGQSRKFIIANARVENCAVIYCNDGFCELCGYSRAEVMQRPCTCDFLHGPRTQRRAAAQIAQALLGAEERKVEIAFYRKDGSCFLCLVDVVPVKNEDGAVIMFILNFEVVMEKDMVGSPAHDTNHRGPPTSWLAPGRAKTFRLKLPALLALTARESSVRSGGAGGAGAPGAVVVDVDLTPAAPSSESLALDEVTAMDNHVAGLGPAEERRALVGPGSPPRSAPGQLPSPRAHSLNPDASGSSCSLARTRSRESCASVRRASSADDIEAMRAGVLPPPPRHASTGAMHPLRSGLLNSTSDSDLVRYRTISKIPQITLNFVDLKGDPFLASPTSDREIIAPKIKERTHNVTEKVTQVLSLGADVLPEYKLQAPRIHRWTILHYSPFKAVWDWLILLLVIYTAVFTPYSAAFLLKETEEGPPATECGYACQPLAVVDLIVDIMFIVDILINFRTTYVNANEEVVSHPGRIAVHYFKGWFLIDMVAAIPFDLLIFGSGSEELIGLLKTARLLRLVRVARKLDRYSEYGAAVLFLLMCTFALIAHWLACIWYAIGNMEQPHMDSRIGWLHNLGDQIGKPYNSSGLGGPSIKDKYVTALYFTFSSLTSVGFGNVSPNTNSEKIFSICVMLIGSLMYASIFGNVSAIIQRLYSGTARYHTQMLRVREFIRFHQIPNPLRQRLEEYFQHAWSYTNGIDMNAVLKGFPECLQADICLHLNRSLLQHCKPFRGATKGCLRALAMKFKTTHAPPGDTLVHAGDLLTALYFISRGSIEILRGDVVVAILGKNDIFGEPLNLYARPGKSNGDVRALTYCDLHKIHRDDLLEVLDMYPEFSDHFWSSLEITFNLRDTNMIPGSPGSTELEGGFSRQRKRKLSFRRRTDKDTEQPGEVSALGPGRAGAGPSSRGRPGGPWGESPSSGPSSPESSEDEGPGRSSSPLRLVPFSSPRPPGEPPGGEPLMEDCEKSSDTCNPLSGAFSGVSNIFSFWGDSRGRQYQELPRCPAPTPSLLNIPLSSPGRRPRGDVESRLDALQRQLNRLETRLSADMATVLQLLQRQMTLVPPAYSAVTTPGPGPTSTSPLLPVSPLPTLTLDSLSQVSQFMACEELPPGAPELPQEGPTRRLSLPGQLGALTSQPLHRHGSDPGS
Sequence of CYP2C19 (P33261 whole entry): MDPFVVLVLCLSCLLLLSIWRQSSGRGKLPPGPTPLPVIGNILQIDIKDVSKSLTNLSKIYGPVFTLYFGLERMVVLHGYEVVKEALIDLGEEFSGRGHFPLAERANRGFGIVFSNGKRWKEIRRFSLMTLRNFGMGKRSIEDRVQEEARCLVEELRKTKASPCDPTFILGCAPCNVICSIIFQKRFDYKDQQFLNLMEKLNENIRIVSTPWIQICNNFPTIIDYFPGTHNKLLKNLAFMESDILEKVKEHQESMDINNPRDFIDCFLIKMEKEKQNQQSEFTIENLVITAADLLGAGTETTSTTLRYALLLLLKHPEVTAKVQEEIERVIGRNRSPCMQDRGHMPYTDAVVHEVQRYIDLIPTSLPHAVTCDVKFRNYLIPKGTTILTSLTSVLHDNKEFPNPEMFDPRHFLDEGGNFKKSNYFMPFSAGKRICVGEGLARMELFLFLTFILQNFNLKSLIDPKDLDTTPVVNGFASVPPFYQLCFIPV
Sequence of HDAC9 (Q9UKV0 whole entry): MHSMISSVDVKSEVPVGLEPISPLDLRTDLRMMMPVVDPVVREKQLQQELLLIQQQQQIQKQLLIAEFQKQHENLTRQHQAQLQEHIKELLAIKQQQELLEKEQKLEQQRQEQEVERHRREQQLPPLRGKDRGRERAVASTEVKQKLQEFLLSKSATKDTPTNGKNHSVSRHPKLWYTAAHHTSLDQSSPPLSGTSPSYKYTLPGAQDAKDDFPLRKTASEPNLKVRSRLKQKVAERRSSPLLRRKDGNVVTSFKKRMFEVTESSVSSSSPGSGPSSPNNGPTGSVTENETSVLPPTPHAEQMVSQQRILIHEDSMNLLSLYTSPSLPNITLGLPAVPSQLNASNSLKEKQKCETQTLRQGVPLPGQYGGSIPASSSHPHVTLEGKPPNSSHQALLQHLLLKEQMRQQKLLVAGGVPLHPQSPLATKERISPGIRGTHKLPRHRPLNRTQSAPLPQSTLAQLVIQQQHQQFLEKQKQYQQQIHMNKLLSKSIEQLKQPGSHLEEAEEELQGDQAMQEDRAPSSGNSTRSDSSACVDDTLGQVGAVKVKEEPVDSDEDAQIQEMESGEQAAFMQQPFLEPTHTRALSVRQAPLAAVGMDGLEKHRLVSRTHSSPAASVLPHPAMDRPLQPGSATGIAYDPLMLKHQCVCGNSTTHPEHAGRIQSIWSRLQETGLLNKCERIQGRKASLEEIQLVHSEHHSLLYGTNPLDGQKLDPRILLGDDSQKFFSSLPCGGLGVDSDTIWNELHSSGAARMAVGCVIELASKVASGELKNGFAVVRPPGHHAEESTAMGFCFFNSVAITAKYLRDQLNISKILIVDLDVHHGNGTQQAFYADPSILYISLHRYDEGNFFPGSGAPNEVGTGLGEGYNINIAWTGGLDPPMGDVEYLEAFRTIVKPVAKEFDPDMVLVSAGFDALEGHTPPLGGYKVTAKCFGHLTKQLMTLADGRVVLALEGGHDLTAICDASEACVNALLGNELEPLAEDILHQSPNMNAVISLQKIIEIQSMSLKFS
Sequence of CYP3A4 (P08684 whole entry): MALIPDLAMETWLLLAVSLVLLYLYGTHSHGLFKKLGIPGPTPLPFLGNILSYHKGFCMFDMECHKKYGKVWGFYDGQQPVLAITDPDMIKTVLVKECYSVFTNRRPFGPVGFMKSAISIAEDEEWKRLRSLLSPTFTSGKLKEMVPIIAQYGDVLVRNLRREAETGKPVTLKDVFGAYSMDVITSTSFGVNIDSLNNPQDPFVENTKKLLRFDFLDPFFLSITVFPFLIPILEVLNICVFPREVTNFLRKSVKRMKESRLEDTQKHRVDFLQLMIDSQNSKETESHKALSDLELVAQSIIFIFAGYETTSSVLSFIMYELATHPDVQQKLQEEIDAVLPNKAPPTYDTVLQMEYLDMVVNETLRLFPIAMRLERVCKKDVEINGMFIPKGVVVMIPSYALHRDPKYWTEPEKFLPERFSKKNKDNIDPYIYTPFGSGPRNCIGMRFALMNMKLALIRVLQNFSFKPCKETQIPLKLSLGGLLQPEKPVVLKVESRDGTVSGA

Question: What does the source list for `N[C@@H](Cc1cc(I)c(Oc2ccc(O)c(I)c2)c(I)c1)C(=O)O` [LIOTHYRONINE]?
Answer: Activity [1]: 139 mg/dL; Activity [2]: Toxic; Activity [3]: 65.2 mg/dL; Activity [4]: Toxic; Activity [5]: 159 U/L; Activity [6]: 90.2 mg/dL; Activity [7]: 53 U/L; Activity [8]: 1.4 mg/dL; Activity [9]: Toxic

Question: Which inhibition at 10 µM (HDAC9) does the source give for `CCNc1ccc(Cc2ccc(OCC(=O)O)cc2)cc1C(C)C` here?
Answer: < 50%

Question: And the inhibition at 10 µM (SIRT7)?
Answer: < 50%

Question: And the inhibition [10]?
Answer: < 50%

Question: What about the inhibition at 10 µM (HDAC6) of the same compound?
Answer: < 50%

Question: And the inhibition at 24 h, 10 µM [11]?
Answer: 65%

Question: What about the inhibition at 10 µM (CYP1A2) of the same compound?
Answer: > 91%

Question: What about the inhibition at 48 h, 10 µM [12] of the same compound?
Answer: 51%

Question: What about the inhibition at 10 µM (HDAC4) of the same compound?
Answer: < 50%

Question: What about the inhibition at 48 h, 10 µM [13] of the same compound?
Answer: < 50%

Question: And the inhibition at 10 µM (HDAC8)?
Answer: < 50%

Question: And the inhibition at 10 µM (CYP2C19)?
Answer: > 91%

Question: And the inhibition at 10 µM (hERG (KCNH2))?
Answer: > 91%

Question: And the inhibition at 24 h, 10 µM [14]?
Answer: < 50%

Question: And the inhibition at 24 h, 10 µM [15]?
Answer: < 50%

Question: What about the inhibition at 10 µM (CYP3A4) of the same compound?
Answer: > 91%

Question: And the inhibition at 48 h, 10 µM [16]?
Answer: < 50%

Question: What about the inhibition at 10 µM (CYP2D6) of the same compound?
Answer: 51%

Question: What about the inhibition at 10 µM (Aurora B) of the same compound?
Answer: < 50%

Question: And the inhibition at 48 h, 10 µM [17]?
Answer: < 50%

Question: What about the inhibition at 24 h, 10 µM [18] of the same compound?
Answer: 51%

Question: What about the inhibition at 10 µM (CYP2C9) of the same compound?
Answer: > 91%

Question: Which results are given for `CC(=O)Nc1ccc(Cc2ccc(OCC(=O)O)cc2)cc1C(C)C`?
Answer: inhibition at 10 µM (HDAC9): < 50%; inhibition at 10 µM (SIRT7): < 50%; inhibition [10]: < 50%; inhibition at 10 µM (HDAC6): < 50%; inhibition at 24 h, 10 µM [11]: < 50%; inhibition at 10 µM (CYP1A2): < 50%; inhibition at 48 h, 10 µM [12]: < 50%; inhibition at 10 µM (HDAC4): < 50%; inhibition at 48 h, 10 µM [13]: < 50%; inhibition at 10 µM (HDAC8): < 50%; inhibition at 10 µM (CYP2C19): < 50%; inhibition at 10 µM (hERG (KCNH2)): < 40%; inhibition at 24 h, 10 µM [14]: < 50%; inhibition at 24 h, 10 µM [15]: < 50%; inhibition at 10 µM (CYP3A4): < 50%; inhibition at 48 h, 10 µM [16]: < 50%; inhibition at 10 µM (CYP2D6): < 50%; inhibition at 10 µM (Aurora B): < 50%; inhibition at 48 h, 10 µM [17]: < 50%; inhibition at 24 h, 10 µM [18]: < 50%; inhibition at 10 µM (CYP2C9): < 50%
